Test results published in paper PMC7796031, “Studies of Coumarin Derivatives for Constitutive Androstane Receptor (CAR) Activation” (Molecules, 2020).

Key:
db/db mice = assay: In vivo hypoglycemic effect in db/db mice (OGTT, fructosamine, insulin, HOMA-IR); design: species or system mouse
Experimental: Six-week old male C57/BL6 mice (n = 6) were acquired from the Animal Center of the College of Medicine, National Taiwan University (Taipei, Taiwan) and 6-week-old male db/db mice (BKS.Cg-Dock7m +/+ Leprdb/JNarl) (n = 12) were acquired from the National Laboratory Animal Center (Tainan, Taiwan). Experimental animals were allowed to acclimate to the controlled photoperiod (a cycle of 12-h light/12-h dark), humidity (40–60% relative humidity) and temperature (22 ± 2 °C) with ad libitum supply of standard chow diets and drinking water for one week prior to the experimental treatment in accordance with the Guide for the Care and Use of Laboratory Animals (Institute of Laboratory Animal Resources Commission on Life Sciences, 2011). Acclimated animals were randomly separated into three cohorts: control group (C57/BL6 mice treated with vehicle for two weeks, n = 6), db/db group (db/db mice treated with vehicle for two weeks, n = 6), and db/db+SP group (db/db mice treated with 100 mg/kg scoparone for two weeks, n = 6). (IACUC Approval NO.: 20140532; Duration: 2015.01.01–2015.12.31; Ethical Committee: National Taiwan University College of Medicine and College of Public Health Institutional Animal Care and Use Committee (IACUC).)
The control mice or diabetic mice with or without drugs treatment for 2 weeks received an oral glucose challenge (2 g/kg). Mice were under slight anesthesia by an intraperitoneal injection of pentobarbital (50 mg/kg) and blood samples (20–50 μL via orbital sinus at each time point) were collected following: 0, 15, 30, 60, 90, and 120 min after delivery of the glucose load. Blood glucose levels were determined using SURESTEP blood glucose meter (Lifescan). Glucose tolerance was determined and performed as the curve (AUC) and delta AUC (ΔAUC) using Prism 5 software (GraphPad).
To determine the amount of insulin and fructosamine after fasting overnight, blood samples (0.5–0.8 mL) of euthanasia animals were collected. After centrifugation, the serum was analyzed by insulin and fructosamine immunoassay kits according to the respective instructions of the manufacturer (Mercodia AB Inc., Uppsala, Sweden; Hospitex Diagnostics Lp, League City, TX, USA). The homeostasis model assessment of insulin resistance (HOMA-IR) index is calculated with the formula of the values of fasting glucose and insulin divided by 22.5 as previously described.

[1] = system: phosphoenopyruvate carboxykinse (PEPCK) mRNA expression; assay: PEPCK mRNA expression induced by dexamethasone and 8-bromo-cAMP in H4IIE cells; assay type: cell-based, rat; conditions: dexamethasone (500 nM) + 8-bromo-cAMP, test compounds as printed
Experimental: S21 Effects of scoparone, 50 (PLH), and 6 on phosphoenopyruvate carboxykinse (PEPCK) mRNA expression induced by dexamethasone and 8-bromo-cAMP.
A quantified result of dexamethasone (500 nM) and 8-bromo-cAMP (100µM) induced PEPCK mRNA expression in the presence or absence of scoparone, 50 (PLH) and 6 at 0.78 µM was shown. Insulin (10 nM) was served as an experimental control. Quantified data was presented as mean ± S.E.M. (n = 4). **P < 0.01 and ***P < 0.001 when compared with induction control (None).
PEPCK mRNA could be induced by dexamethasone and 8-bromo-cAMP after 3hr. The presence of insulin […]
Scoparone, at 0.78 µM, can suppress PEPCK
In contrast, both 50 (PLH) and 6 could also suppress PEPCK
Cell culture: The rat H4IIE cells were cultured in Dulbecco’s Modified Eagle’sMedium (DMEM) containing 1 g/L glucose, 5% (v/v) fetal calf serum (FBS) and 1% (v/v) antibiotics (100 U/mL penicillin and 0.1 g/L streptomycin). Cultured cells were maintained at 37 ◦C in an atmosphere of 5% CO2 and 95% air.
The measurement of PEPCK gene expression: H4IIE cells were seeded into 6 cm dish and allowed for the attachment. After serum starvation overnight, cells were treated with various conditions described in the figure legend. After treatment, total RNA of each treatment was extracted using TRI-reagent according to the manufacturer’s instructions. The pelleted RNA was dissolved in distilled water, quantified with NanoDrop™ 1000 Spectrophotometer (Thermo Fisher Scientific, USA) and stored at −70 ◦C. Total RNA (1µg) was reverse transcribed to generate templates. 50 ng of cDNA was employed for further PCR. The sequences of […]
primers for β-actin: 5’-[…]- 3’ and 5’-[…]-3’ and […]
(1 picture or pasted object on this page, not shown here)

[2] = db/db mice, 100 mg/kg P.O., two weeks

Compound | HOMA-IR (db/db mice; [2]) | insulin level (db/db mice; [2]) | level of fructosamine (db/db mice; [2]) | oral glucose tolerance test (OGTT) (db/db mice; [2]) | suppression of PEPCK mRNA induction [1] | in vivo efficacy (blood sugar lowering) (db/db mice; even by intraperitoneal injection)
COc1cc2ccc(=O)oc2cc1OC [Compound 39, scoparone] | did not change | did not change | decreased | significant improvement | level similar to insulin | –
CC(C)=CCOc1cc2ccc(=O)oc2cc1OCC=C(C)C [Compound 50, 6,7-diprenoxycoumarin] | – | – | – | – | less potent | didn’t show any in vivo efficacy
